This is an account of results in patent US5384317A, “Bridged biphenyl carbapenem compounds, compositions containing such compounds and methods of use” (Merck & Co., Inc., priority 1993, dated 1995).

Converted amounts (≈) assume the structure as drawn.

Assay [1] relates to MRSA strain MB #5180. Put plainly: antibiotic disc-diffusion assay of MRSA activity, relative to imipenem. The class given is cell-based, methicillin resistant Staphylococcus aureus. The conditions noted are these: multiples of the relative potency of imipenem. On the procedure:
In vitro antibacterial activity determined in accordance with the protocol set forth below is predictive of in vivo activity, when the compounds are administered to a mammal infected with a susceptible bacterial organism.
(§1) Minimum inhibitory concentrations for different compounds may be calculated using the procedures set forth in Lorian, V. (ed.) Antibiotics in Laboratory Medicine (3rd ed.) pages 30-35 if desired. However, by comparing disc sensitivities to a known compound, e.g., imipenem, this calculation is not required to recognize MRSA/MRCNS activity.
Assay Used to Test the Activities of Carbapenems Against Methicillin-Resistant Staphylococci: The assay is an antibiotic disc-diffusion assay modeled after the method described by Bauer and Kirby, et al.1, with the following modifications and clarifications:
Agar: This assay employs an agar depth of 2 mm instead of 4 mm.
Zone Readings: The inner, completely clear zone is measured.
Culture Storage: Frozen vials of strains are stored at -80° C. Working slants are prepared from frozen vials and are used for 1 month to 6 weeks. For methicillin-resistant strains the slant medium is Muleller Hinton Agar; for control strains the slant medium is Brain Heart Infusion Agar. After inoculation from frozen vials, methicillin-resistant slant cultures are incubated at 28° C. until good growth is achieved (approximately 20 hours); slants of control strains are incubated at 37° C. for 16-18 hours.
Preparation of Methicillin-Resistant Inocula for Assay: For methicillin-resistant strains, inoculate 0.5 ml of BHIB heavily (to achieve approximately 1×10^8-109 cfu/ml) from the slant culture by using a sterile cotton tipped applicator. […]
Methicillin-resistant Staphylococci: With a cotton tipped applicator, swab enough growth off the grown plates into 1 ml BHIB to achieve a visual concentration of approximately 1×10^9 cfu/ml. […] Add measured quantities of PBS to dilutions to achieve % T @ 1% above or below the % T measurement for the control cultures. […]
For orientation: Agar diffusion results depend on both activity and mobility in agar.

Assay [2] concerns MRSA strain MB #5180. Put plainly: minimum inhibitory concentration. The format is cell-based, methicillin resistant Staphylococcus aureus. The conditions noted are these: Staphylococcus aureus, imipenem (standard). On the procedure:
as §1
All compounds below were tested against MRSA strain MB #5180. […]

As to `C[C@@H](O)[C@H]1C(=O)N2C(C(=O)O)=C3c4cccc(-c5ccccc5)c4CC[C@@H]3[C@H]12`, the “MRSA Activity” value in assay [1] was found to be 1.9. On the same count and under the same terms, the same measure for `C[C@@H](O)[C@H]1C(=O)N2C(C(=O)O)=C3c4ccccc4CC[C@@H]3[C@H]12`: 1.3; for `C[C@@H](O)[C@H]1C(=O)N2C(C(=O)O)=C3c4cc(-c5ccccc5)ccc4CC[C@@H]3[C@H]12`: 18.0. In assay [2], `C[C@@H](O)[C@H]1C(=O)N2C(C(=O)O)=C(SCCN=CN)C[C@H]12` [imipenem] came in with a minimal inhibitory concentration (MIC) of 46 µg/mL (≈ 154 µM).

In general, MIC refers to the smallest concentration in the dilution series that meets the test's criterion for growth inhibition. A higher MIC goes with weaker potency.
